According to BigSolDB 2.1:

Cc1nc(C)c(C)nc1C
solubility (mole fraction)
Settings	in acetone	in acetonitrile	in ethanol	in ethyl acetate	in isopropanol	in methanol	in methyl acetate	in n-butanol	in n-propanol
273.15 K	0.0459	0.0279	0.0644	0.0958	0.0534	0.111	0.0758	0.106	0.102
278.15 K	0.0592	0.034	0.0775	0.113	0.0702	0.119	0.094	0.126	0.114
283.15 K	0.0712	0.0405	0.0911	0.136	0.0814	0.143	0.112	0.152	0.138
288.15 K	0.0869	0.0503	0.11	0.16	0.0998	0.162	0.133	0.175	0.158
293.15 K	0.106	0.0587	0.128	0.181	0.115	0.194	0.156	0.205	0.185
298.15 K	0.132	0.0743	0.162	0.212	0.142	0.222	0.189	0.235	0.213
303.15 K	0.156	0.0888	0.186	0.244	0.166	0.262	0.216	0.262	0.245
308.15 K	0.185	0.115	0.216	0.284	0.196	0.296	0.254	0.302	0.3
313.15 K	0.209	0.147	0.255	0.34	0.249	0.342	0.291	0.351	0.347
